Measurements as given in patent publication US20070049564A1 (Wyeth, priority 2005, published 2007).
Values after ≈ are worked out from the molar mass of the structure shown. Like-named read-outs stand apart in the source and are kept apart here.

How the values were obtained:
E. coli #311 = test: In vivo activity (oral, iv; ED50) against E. coli in mice; conditions: Escherichia coli
Text: . […] Smith and E. Coli #311 in mammals.
Results of the tests (MIC, oral and IV) are list in Table 7.

Salmonella spp. GC 566 = test: MIC, broth microdilution; conditions: Salmonella
Description: (§1) Antimicrobial susceptibility testing. The in vitro activities of the antibiotics are determined by the broth microdilution method as recommended by the National Committee for Clinical Laboratory Standards (NCCLS) (1). Mueller-Hinton II broth (MHBII)(BBL Cockeysville, Md.) is the medium employed in the testing procedures. Microtiter plates containing serial dilutions of each antimicrobial agent are inoculated with each organism to yield the appropriate density (10^5 CFU/ml) in a 100 μl final volume. The plates are incubated for 18-22 hours at 35° C. in ambient air.
(§2) Presented in Tables I-XIII are representative compounds of Formula I which were evaluated against a panel of 40 selected gram-positive and gram-negative bacteria strains by pre-incubation in water, mouse serum or human serum. Representative compounds were first incubated in mouse serum for an hour prior to the in vitro testing against a panel of selected gram-positive and gram-negative bacteria strains. All compounds were also pre-incubated in water for an hour prior to testing as control. Representative compounds of Formula I were incubated in human serum prior to MIC determination.

Salmonella spp. GC 235 = test: MIC, broth microdilution; conditions: Salmonella
Description: as §1
Representative compounds were first incubated in mouse serum for an hour prior to the in vitro testing against a panel of selected gram-positive and gram-negative bacteria strains. All compounds were also pre-incubated in water for an hour prior to testing as control.

S. cholerasius GC 1355 = test: MIC, broth microdilution
Description: as §1, §2

Staph. aureus Smith = test: In vitro activity (MIC) against Staph. aureus Smith; assay type: cell-based; conditions: Staphylococcus aureus
[1] = single intravenous dose (SIV), read-out: ED50 E. coli #311 SIV
[2] = single oral dose (SOD), read-out: ED50 E. coli #311 SOD
[3] = SPP.GC566, pre-incubation in human serum
[4] = SPP.GC566, pre-incubation in mouse serum
[5] = SPP.GC566, pre-incubation in water
[6] = SPP.GC235, pre-incubation in human serum
[7] = SPP.GC235, pre-incubation in mouse serum
[8] = SPP.GC235, pre-incubation in water
[9] = SPP.GC566, Salmonella spp. GC 566, Mouse Serum pre-incubation
[10] = SPP.GC566, Salmonella spp. GC 566, Water pre-incubation
[11] = SPP.GC235, Salmonella spp. GC 235, Mouse Serum pre-incubation
[12] = SPP.GC235, Salmonella spp. GC 235, Water pre-incubation
[13] = S. cholerasius GC 1355, Mouse Serum pre-incubation
[14] = S. cholerasius GC 1355, Water pre-incubation

Row | Structure (SMILES) | ED50 (E. coli #311; [1]) | ED50 (E. coli #311; [2]) | MIC (Salmonella spp. GC 566; [9]) | MIC (Salmonella spp. GC 566; [10]) | MIC (Salmonella spp. GC 235; [11]) | MIC (Salmonella spp. GC 235; [12]) | MIC (S. cholerasius GC 1355; [13]) | MIC (S. cholerasius GC 1355; [14]) | further results
1 | CN(C)c1cc(NC(=O)CN(C(=O)OCOC(=O)C2CCC2)C(C)(C)C)c(O)c2c1C[C@H]1C[C@H]3[C@H](N(C)C)C(O)=C(C(N)=O)C(=O)[C@@]3(O)C(O)=C1C2=O [Example 62, ({[(2-{[(5aR,6aS,7S,10aS)-9-(aminocarbonyl)-4,7-bis(dimethylamino)-1,8,10a,11-tetrahydroxy-10,12-dioxo-5,5a,6,6a,7,10,10a,12-octahydrotetracen-2-yl]amino}-2-oxoethyl)(tert-butyl)amino]carbonyl}oxy)methyl cyclobutanecarboxylate] | 4 to 8 mg/kg | > 32 mg/kg |  |  |  |  |  |  | MIC (Salmonella spp. GC 566; [3]): 16 µg/mL (≈ 21.6 µM); MIC (Salmonella spp. GC 566; [4]): 1 µg/mL (≈ 1.35 µM); MIC (Salmonella spp. GC 566; [5]): > 64 µg/mL; MIC (Salmonella spp. GC 235; [6]): 8 µg/mL (≈ 10.8 µM); MIC (Salmonella spp. GC 235; [7]): 1 µg/mL (≈ 1.35 µM); MIC (Salmonella spp. GC 235; [8]): > 64 µg/mL; MIC (S. cholerasius GC 1355; pre-incubation in human serum): 32 µg/mL (≈ 43.1 µM); MIC (S. cholerasius GC 1355; pre-incubation in mouse serum): 2 µg/mL (≈ 2.7 µM); MIC (S. cholerasius GC 1355; pre-incubation in water): > 64 µg/mL
2 | CCCCC(=O)OCOC(=O)N(CC(=O)Nc1cc(N(C)C)c2c(c1O)C(=O)C1=C(O)[C@]3(O)C(=O)C(C(N)=O)=C(O)[C@@H](N(C)C)[C@@H]3C[C@@H]1C2)C(C)(C)C [Example 61, ({[(2-{[(5aR,6aS,7S,10aS)-9-(aminocarbonyl)-4,7-bis(dimethylamino)-1,8,10a,11-tetrahydroxy-10,12-dioxo-5,5a,6,6a,7,10,10a,12-octahydrotetracen-2-yl]amino}-2-oxoethyl)(tert-butyl)amino]carbonyl}oxy)methyl pentanoate] | 2 to 4 mg/kg | > 32 mg/kg |  |  |  |  |  |  | MIC (Salmonella spp. GC 566; [3]): 32 µg/mL (≈ 43 µM); MIC (Salmonella spp. GC 566; [4]): 1 µg/mL (≈ 1.34 µM); MIC (Salmonella spp. GC 566; [5]): > 64 µg/mL; MIC (Salmonella spp. GC 235; [6]): 16 µg/mL (≈ 21.5 µM); MIC (Salmonella spp. GC 235; [7]): 1 µg/mL (≈ 1.34 µM); MIC (Salmonella spp. GC 235; [8]): > 64 µg/mL; MIC (S. cholerasius GC 1355; pre-incubation in human serum): 64 µg/mL (≈ 86 µM); MIC (S. cholerasius GC 1355; pre-incubation in mouse serum): 2 µg/mL (≈ 2.69 µM); MIC (S. cholerasius GC 1355; pre-incubation in water): > 64 µg/mL
3 | Cc1ccc(C(=O)OCOC(=O)N(CC(=O)Nc2cc(N(C)C)c3c(c2O)C(=O)C2=C(O)[C@]4(O)C(=O)C(C(N)=O)=C(O)[C@@H](N(C)C)[C@@H]4C[C@@H]2C3)C(C)(C)C)cc1 [Example 47] | 3.17 mg/kg | > 64 mg/kg |  |  |  |  |  |  | MIC (Staph. aureus Smith; Table 6): 4 µg/mL (≈ 5.14 µM)
4 | CCCCN(CC(=O)Nc1cc(N(C)C)c2c(c1O)C(=O)C1=C(O)[C@]3(O)C(=O)C(C(N)=O)=C(O)[C@@H](N(C)C)[C@@H]3C[C@@H]1C2)C(=O)OCOC(=O)c1ccc(F)cc1 [Example 4, ({[(2-{[(5aR,6aS,7S,10aS)-9-(aminocarbonyl)-4,7-bis(dimethylamino)-1,8,10a,11-tetrahydroxy-10,12-dioxo-5,5a,6,6a,7,10,10a,12-octahydrotetracen-2-yl]amino}-2-oxoethyl)(butyl)amino]carbonyl}oxy)methyl 4-fluorobenzoate] | > 2 mg/kg | > 32 mg/kg | 4 µg/mL (≈ 5.12 µM) | > 64 µg/mL | 2 µg/mL (≈ 2.56 µM) | > 64 µg/mL | 8 µg/mL (≈ 10.2 µM) | > 64 µg/mL | 
5 | CN(C)c1cc(NC(=O)CN(C(=O)OCOC(=O)CCC2CCCCC2)C(C)(C)C)c(O)c2c1C[C@H]1C[C@H]3[C@H](N(C)C)C(O)=C(C(N)=O)C(=O)[C@@]3(O)C(O)=C1C2=O [Example 63, ({[(2-{[(5aR,6aS,7S,10aS)-9-(aminocarbonyl)-4,7-bis(dimethylamino)-1,8,10a,11-tetrahydroxy-10,12-dioxo-5,5a,6,6a,7,10,10a,12-octahydrotetracen-2-yl]amino}-2-oxoethyl)(tert-butyl)amino]carbonyl}oxy)methyl 3-cyclohexylpropanoate] | 4 to 8 mg/kg | > 32 mg/kg |  |  |  |  |  |  | MIC (Salmonella spp. GC 566; [3]): > 64 µg/mL; MIC (Salmonella spp. GC 566; [4]): 1 µg/mL (≈ 1.25 µM); MIC (Salmonella spp. GC 566; [5]): > 64 µg/mL; MIC (Salmonella spp. GC 235; [6]): > 64 µg/mL; MIC (Salmonella spp. GC 235; [7]): 1 µg/mL (≈ 1.25 µM); MIC (Salmonella spp. GC 235; [8]): > 64 µg/mL; MIC (S. cholerasius GC 1355; pre-incubation in human serum): > 64 µg/mL; MIC (S. cholerasius GC 1355; pre-incubation in mouse serum): 2 µg/mL (≈ 2.51 µM); MIC (S. cholerasius GC 1355; pre-incubation in water): > 64 µg/mL
6 | CCCN(CC(=O)Nc1cc(N(C)C)c2c(c1O)C(=O)C1=C(O)[C@]3(O)C(=O)C(C(N)=O)=C(O)[C@@H](N(C)C)[C@@H]3C[C@@H]1C2)C(=O)OCOC(=O)c1ccc(C(C)(C)C)cc1 [Example 28, ({[(2-{[(5aR,6aS,7S,10aS)-9-(aminocarbonyl)-4,7-bis(dimethylamino)-1,8,10a,11-tetrahydroxy-10,12-dioxo-5,5a,6,6a,7,10,10a,12-octahydrotetracen-2-yl]amino}-2-oxoethyl)(propyl)amino]carbonyl}oxy)methyl 4-tert-butylbenzoate] | > 2 mg/kg | > 32 mg/kg |  |  |  |  |  |  | MIC (Staph. aureus Smith; Table 8): 32 µg/mL (≈ 39.7 µM)
7 | CCCN(CC(=O)Nc1cc(N(C)C)c2c(c1O)C(=O)C1=C(O)[C@]3(O)C(=O)C(C(N)=O)=C(O)[C@@H](N(C)C)[C@@H]3C[C@@H]1C2)C(=O)OCOC(=O)C(C)(C)C [Example 9, ({[(2-{[(5aR,6aS,7S,10aS)-9-(aminocarbonyl)-4,7-bis(dimethylamino)-1,8,10a,11-tetrahydroxy-10,12-dioxo-5,5a,6,6a,7,10,10a,12-octahydrotetracen-2-yl]amino}-2-oxoethyl)(propyl)amino]carbonyl}oxy)methyl pivalate] |  |  | 2 µg/mL (≈ 2.74 µM) | 64 µg/mL (≈ 87.7 µM) | 1 µg/mL (≈ 1.37 µM) | 8 µg/mL (≈ 11 µM) | 64 µg/mL (≈ 87.7 µM) | > 64 µg/mL | 
8 | CCCN(CC(=O)Nc1cc(N(C)C)c2c(c1O)C(=O)C1=C(O)[C@]3(O)C(=O)C(C(N)=O)=C(O)[C@@H](N(C)C)[C@@H]3C[C@@H]1C2)C(=O)OCC [Example 15, ethyl 2-{[(5aR,6aS,7S,10aS)-9-(aminocarbonyl)-4,7-bis(dimethylamino)-1,8,10a,11-tetrahydroxy-10,12-dioxo-5,5a,6,6a,7,10,10a,12-octahydrotetracen-2-yl]amino}-2-oxoethyl(propyl)carbamate] |  |  | > 64 µg/mL | > 64 µg/mL | > 64 µg/mL | > 64 µg/mL | > 64 µg/mL | > 64 µg/mL | 
9 | CCCN(CC(=O)Nc1cc(N(C)C)c2c(c1O)C(=O)C1=C(O)[C@]3(O)C(=O)C(C(N)=O)=C(O)[C@@H](N(C)C)[C@@H]3C[C@@H]1C2)C(=O)OCOC(=O)c1cc(C)cc(C)c1 [Example 26, ({[(2-{[(5aR,6aS,7S,10aS)-9-(aminocarbonyl)-4,7-bis(dimethylamino)-1,8,10a,11-tetrahydroxy-10,12-dioxo-5,5a,6,6a,7,10,10a,12-octahydrotetracen-2-yl]amino}-2-oxoethyl)(propyl)amino]carbonyl}oxy)methyl 3,5-dimethylbenzoate] |  |  |  |  |  |  |  |  | MIC (Staph. aureus Smith; Table 8): 0.5 µg/mL (≈ 0.643 µM)
10 | CCCN(CC(=O)Nc1cc(N(C)C)c2c(c1O)C(=O)C1=C(O)[C@]3(O)C(=O)C(C(N)=O)=C(O)[C@@H](N(C)C)[C@@H]3C[C@@H]1C2)C(=O)OCOC(=O)C1CCC1 [Example 7, ({[(2-{[(5aR,6aS,7S,10aS)-9-(aminocarbonyl)-4,7-bis(dimethylamino)-1,8,10a,11-tetrahydroxy-10,12-dioxo-5,5a,6,6a,7,10,10a,12-octahydrotetracen-2-yl]amino}-2-oxoethyl)(propyl)amino]carbonyl}oxy)methyl cyclobutanecarboxylate] |  |  | 1 µg/mL (≈ 1.37 µM) | 16 µg/mL (≈ 22 µM) | 2 µg/mL (≈ 2.75 µM) | 8 µg/mL (≈ 11 µM) | 16 µg/mL (≈ 22 µM) | > 64 µg/mL | 
11 | CCCCN(CC(=O)Nc1cc(N(C)C)c2c(c1O)C(=O)C1=C(O)[C@]3(O)C(=O)C(C(N)=O)=C(O)[C@@H](N(C)C)C3CC1C2)C(=O)OCOC(=O)c1ccc(C)cc1 (stereo partly drawn) [Example 3, ({[(2-{[(7S,10aS)-9-(aminocarbonyl)-4,7-bis(dimethylamino)-1,8,10a,11-tetrahydroxy-10,12-dioxo-5,5a,6,6a,7,10,10a,12-octahydrotetracen-2-yl]amino}-2-oxoethyl)(butyl)amino]carbonyl}oxy)methyl 4-methylbenzoate] |  |  | 4 µg/mL (≈ 5.14 µM) | > 64 µg/mL | 2 µg/mL (≈ 2.57 µM) | > 64 µg/mL | 16 µg/mL (≈ 20.6 µM) | > 64 µg/mL | 
12 | CCCN(CC(=O)Nc1cc(N(C)C)c2c(c1O)C(=O)C1=C(O)[C@]3(O)C(=O)C(C(N)=O)=C(O)[C@@H](N(C)C)[C@@H]3C[C@@H]1C2)C(=O)OCOC(=O)c1ccc(F)cc1 [Example 8, ({[(2-{[(5aR,6aS,7S,10aS)-9-(aminocarbonyl)-4,7-bis(dimethylamino)-1,8,10a,11-tetrahydroxy-10,12-dioxo-5,5a,6,6a,7,10,10a,12-octahydrotetracen-2-yl]amino}-2-oxoethyl)(propyl)amino]carbonyl}oxy)methyl 4-fluorobenzoate] |  |  | 4 µg/mL (≈ 5.21 µM) | > 64 µg/mL | 4 µg/mL (≈ 5.21 µM) | 64 µg/mL (≈ 83.4 µM) | 32 µg/mL (≈ 41.7 µM) | > 64 µg/mL | 
13 | CCCN(CC(=O)Nc1cc(N(C)C)c2c(c1O)C(=O)C1=C(O)[C@]3(O)C(=O)C(C(N)=O)=C(O)[C@@H](N(C)C)[C@@H]3C[C@@H]1C2)C(=O)OCOC(=O)C(C)C [Example 10, ({[(2-{[(5aR,6aS,7S,10aS)-9-(aminocarbonyl)-4,7-bis(dimethylamino)-1,8,10a,11-tetrahydroxy-10,12-dioxo-5,5a,6,6a,7,10,10a,12-octahydrotetracen-2-yl]amino}-2-oxoethyl)(propyl)amino]carbonyl}oxy)methyl 2-methylpropanoate] |  |  | 2 µg/mL (≈ 2.79 µM) | > 64 µg/mL | 0.5 µg/mL (≈ 0.699 µM) | 32 µg/mL (≈ 44.7 µM) | 16 µg/mL (≈ 22.4 µM) | > 64 µg/mL | 
